From patent US20090012103A1, “SUBSTITUTED HETEROCYCLIC COMPOUNDS” (priority 2007, published 2009)

What follows are compounds tested against wild-type human cardiac sodium channel, hNav1.5 (Homo sapiens, UniProt Q14524) (assay: Late INa screening assay (late sodium current, PatchXpress whole cell patch clamp)). Conditions: compound at 10 μM.
Format: cell-based

Sequence of wild-type human cardiac sodium channel, hNav1.5 (Q14524 whole entry): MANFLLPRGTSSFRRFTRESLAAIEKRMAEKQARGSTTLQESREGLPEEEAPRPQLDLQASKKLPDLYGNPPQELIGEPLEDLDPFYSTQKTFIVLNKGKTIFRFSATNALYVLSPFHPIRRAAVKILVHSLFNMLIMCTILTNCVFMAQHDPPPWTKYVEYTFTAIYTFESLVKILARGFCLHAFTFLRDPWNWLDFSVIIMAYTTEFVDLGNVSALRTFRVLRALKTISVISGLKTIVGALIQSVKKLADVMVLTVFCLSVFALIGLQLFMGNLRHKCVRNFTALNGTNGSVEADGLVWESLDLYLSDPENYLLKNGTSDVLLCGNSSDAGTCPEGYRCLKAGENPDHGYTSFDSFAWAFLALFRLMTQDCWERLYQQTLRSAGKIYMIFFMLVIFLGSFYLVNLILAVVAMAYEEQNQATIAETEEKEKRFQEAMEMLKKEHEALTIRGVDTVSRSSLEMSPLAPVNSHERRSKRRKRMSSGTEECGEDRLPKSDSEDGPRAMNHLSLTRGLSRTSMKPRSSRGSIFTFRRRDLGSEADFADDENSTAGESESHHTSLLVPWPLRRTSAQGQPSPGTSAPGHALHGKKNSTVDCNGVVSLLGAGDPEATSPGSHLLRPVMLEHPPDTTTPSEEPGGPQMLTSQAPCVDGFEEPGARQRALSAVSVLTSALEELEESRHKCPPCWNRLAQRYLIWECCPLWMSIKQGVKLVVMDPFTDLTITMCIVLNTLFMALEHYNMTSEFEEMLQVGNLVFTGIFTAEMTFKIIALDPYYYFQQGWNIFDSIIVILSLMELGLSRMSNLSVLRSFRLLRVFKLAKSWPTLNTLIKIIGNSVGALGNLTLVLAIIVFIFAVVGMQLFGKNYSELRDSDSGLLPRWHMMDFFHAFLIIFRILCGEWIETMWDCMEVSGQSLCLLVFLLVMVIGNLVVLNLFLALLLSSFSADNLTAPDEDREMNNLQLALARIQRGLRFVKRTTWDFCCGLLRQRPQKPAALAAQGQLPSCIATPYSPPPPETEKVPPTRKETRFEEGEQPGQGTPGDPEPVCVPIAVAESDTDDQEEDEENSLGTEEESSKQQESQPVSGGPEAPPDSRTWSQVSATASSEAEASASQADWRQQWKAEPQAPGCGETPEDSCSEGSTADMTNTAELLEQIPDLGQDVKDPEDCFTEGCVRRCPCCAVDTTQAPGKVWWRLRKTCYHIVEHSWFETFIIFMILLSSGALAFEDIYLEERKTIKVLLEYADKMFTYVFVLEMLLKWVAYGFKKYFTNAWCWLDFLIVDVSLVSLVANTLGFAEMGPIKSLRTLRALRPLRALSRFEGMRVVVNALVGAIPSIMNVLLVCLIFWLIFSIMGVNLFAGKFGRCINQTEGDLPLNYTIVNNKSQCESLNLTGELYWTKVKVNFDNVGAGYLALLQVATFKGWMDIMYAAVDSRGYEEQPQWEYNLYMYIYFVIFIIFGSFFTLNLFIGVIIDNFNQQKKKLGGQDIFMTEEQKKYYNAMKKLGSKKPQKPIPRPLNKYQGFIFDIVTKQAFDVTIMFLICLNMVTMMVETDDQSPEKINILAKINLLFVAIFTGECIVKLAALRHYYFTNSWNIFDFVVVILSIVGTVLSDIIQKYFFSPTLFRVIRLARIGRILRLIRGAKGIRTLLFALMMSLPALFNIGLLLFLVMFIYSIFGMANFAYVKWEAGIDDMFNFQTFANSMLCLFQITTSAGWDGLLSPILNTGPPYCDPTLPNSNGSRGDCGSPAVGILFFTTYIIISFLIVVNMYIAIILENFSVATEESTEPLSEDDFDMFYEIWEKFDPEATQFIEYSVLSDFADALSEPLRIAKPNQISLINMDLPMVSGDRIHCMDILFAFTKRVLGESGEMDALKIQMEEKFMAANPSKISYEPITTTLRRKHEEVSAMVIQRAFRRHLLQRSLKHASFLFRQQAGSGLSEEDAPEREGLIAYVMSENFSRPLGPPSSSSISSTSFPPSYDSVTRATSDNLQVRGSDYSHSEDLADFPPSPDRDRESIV

SMILES | Late INa % blk
CC1=C(C(=O)OC(C)C)C(c2c[nH]nc2-c2ccc(F)cc2)C(C(=O)OC(C)C)=C(C)N1 [PT-128, diisopropyl 4-(3-(4-fluorophenyl)-1H-pyrazol-4-yl)-2,6-dimethyl-1,4-dihydropyridine-3,5-dicarboxylate] | 34.1%

Same assay, conditions: compound at 10 μM; read-out: Late INa % blk

SMILES | inhibition at 10 µM
CC1=C(C(=O)OCc2ccccc2)C(c2cccs2)c2cn[nH]c2N1 (stereo not drawn) [PT-370, benzyl 6-methyl-4-(thiophen-2-yl)-4,7-dihydro-1H-pyrazolo[3,4-b]pyridine-5-carboxylate] | 24.7%
CC1=C(C(=O)OC(C)C)C(c2cnn(-c3ccc(F)cc3)c2C)C(C(=O)OC(C)C)=C(C)N1 [PT-127, diisopropyl 4-(1-(4-fluorophenyl)-5-methyl-1H-pyrazol-4-yl)-2,6-dimethyl-1,4-dihydropyridine-3,5-dicarboxylate] | 1.1%
CCOC(=O)C1=C(C)Nc2nnnn2C1c1ccc(N(C)C)cc1[N+](=O)[O-] (stereo not drawn) [PT-501, ethyl 7-(4-(dimethylamino)-2-nitrophenyl)-5-methyl-4,7-dihydrotetrazolo[1,5-a]pyrimidine-6-carboxylate] | 2.5%
COC(=O)C1=C(C)Nc2nnnn2C1c1cccs1 (stereo not drawn) [PT-513, methyl 5-methyl-7-(thiophen-2-yl)-4,7-dihydrotetrazolo[1,5-a]pyrimidine-6-carboxylate] | 10.5%
CCOC(=O)C1=C(C)NC2=C(C(=O)CCC2(C)C)C1c1ccc(Cl)s1 (stereo not drawn) [PT-146, ethyl 4-(5-chlorothiophen-2-yl)-2,8,8-trimethyl-5-oxo-1,4,5,6,7,8-hexahydroquinoline-3-carboxylate] | 31.2%
CC1=C(C(=O)OCc2ccccc2)C(c2cccc3ncccc23)n2nnnc2N1 (stereo not drawn) [PT-038, benzyl 5-methyl-7-(quinolin-5-yl)-4,7-dihydrotetrazolo[1,5-a]pyrimidine-6-carboxylate] | 11.9%
CCOC(=O)C1=C(C)Nc2[nH]ncc2C1c1ccc(N(C)C)c2ccccc12 (stereo not drawn) [PT-454, ethyl 4-(4-(dimethylamino)naphthalen-1-yl)-6-methyl-4,7-dihydro-1H-pyrazolo[3,4-b]pyridine-5-carboxylate] | 30.2%
CC1=C(C(=O)OCc2ccccc2)C(c2ccccc2Br)c2cn[nH]c2N1 (stereo not drawn) [PT-330, benzyl 4-(2-bromophenyl)-6-methyl-4,7-dihydro-1H-pyrazolo[3,4-b]pyridine-5-carboxylate] | 21.2%
COc1cc([N+](=O)[O-])ccc1C1C(C(=O)OCc2ccccc2)=C(C)Nc2nnnn21 (stereo not drawn) [PT-395, benzyl 7-(2-methoxy-4-nitrophenyl)-5-methyl-4,7-dihydrotetrazolo[1,5-a]pyrimidine-6-carboxylate] | 48.7%
CC1=C(C(=O)OCc2ccccc2)C(c2cccc3ccccc23)n2nnnc2N1CC#N (stereo not drawn) [PT-337, benzyl 4-(cyanomethyl)-5-methyl-7-(naphthalen-1-yl)-4,7-dihydrotetrazolo[1,5-a]pyrimidine-6-carboxylate] | 30.2%
CCOC(=O)C1=C(C)NC(C)=C(C(=O)OCC)C1c1ccccc1-c1cccc(C#N)c1 [PT-435, diethyl 4-(3′-cyanobiphenyl-2-yl)-2,6-dimethyl-1,4-dihydropyridine-3,5-dicarboxylate] | 19.4%
COC(=O)C1=C(C)Nc2cc(C)nn2C1c1nc(C)cs1 (stereo not drawn) [PT-507, methyl 2,5-dimethyl-7-(4-methylthiazol-2-yl)-4,7-dihydropyrazolo[1,5-a]pyrimidine-6-carboxylate] | 0.2%
COC(=O)c1ccc(OCCOC(=O)C2=C(C)Nc3nnnn3C2c2cccc3ccccc23)cc1 (stereo not drawn) [PT-251, 2-(4-(methoxycarbonyl)phenoxy)ethyl 5-methyl-7-(naphthalen-1-yl)-4,7-dihydrotetrazolo[1,5-a]pyrimidine-6-carboxylate] | 11.5%
CC1=C(C(=O)OCc2ccccc2)C(c2ccc(Br)cc2F)n2nnnc2N1 (stereo not drawn) [PT-416, benzyl 7-(4-bromo-2-fluorophenyl)-5-methyl-4,7-dihydrotetrazolo[1,5-a]pyrimidine-6-carboxylate] | 25.6%
CC1=C(C(=O)OCc2ccc(Cn3cccn3)cc2)C(c2ccc(N(C)C)c3ccccc23)n2nnnc2N1 (stereo not drawn) [PT-283, 4-((1H-pyrazol-1-yl)methyl)benzyl 7-(4-(dimethylamino)naphthalen-1-yl)-5-methyl-4,7-dihydrotetrazolo[1,5-a]pyrimidine-6-carboxylate] | 11.4%
CCOC(=O)c1ccc(COc2ccccc2C2C(C(=O)OC)=C(C)Nc3nnnn32)cc1 (stereo not drawn) [PT-516, methyl 7-(2-(4-(ethoxycarbonyl)benzyloxy)phenyl)-5-methyl-4,7-dihydrotetrazolo[1,5-a]pyrimidine-6-carboxylate] | 20.2%
CCOC(=O)C1=C(C)NC2=C(C(=O)CCC2)C1c1ccccc1-c1ccc(C(=O)O)cc1 (stereo not drawn) [PT-250, 2′-(3-(ethoxycarbonyl)-2-methyl-5-oxo-1,4,5,6,7,8-hexahydroquinolin-4-yl)biphenyl-4-carboxylic acid] | 7.6%

SMILES | inhibition at 10 µM
CCOC(=O)C1=C(C)Nc2nnnn2C1c1ccccc1-c1cccc(C#N)c1 (stereo not drawn) [PT-499, ethyl 7-(3′-cyanobiphenyl-2-yl)-5-methyl-4,7-dihydrotetrazolo[1,5-a]pyrimidine-6-carboxylate] | 27.7%
COc1ccc(-c2ccccc2C2C(C(=O)OCc3ccccc3)=C(C)Nc3nnnn32)cc1 (stereo not drawn) [PT-420, benzyl 7-(4′-methoxybiphenyl-2-yl)-5-methyl-4,7-dihydrotetrazolo[1,5-a]pyrimidine-6-carboxylate] | 75.3%
CC1=C(C(=O)OCc2ccccc2)C(c2ccc(N(C)C)cc2)n2nnnc2N1 (stereo not drawn) [PT-410, benzyl 7-(4-(dimethylamino)phenyl)-5-methyl-4,7-dihydrotetrazolo[1,5-a]pyrimidine-6-carboxylate] | 11.4%
CCOC(=O)C1=C(C)N(Cc2nnn[nH]2)c2nnnn2C1c1cccc2ccccc12 (stereo not drawn) [PT-444, ethyl 4-((1H-tetrazol-5-yl)methyl)-5-methyl-7-(naphthalen-1-yl)-4,7-dihydrotetrazolo[1,5-a]pyrimidine-6-carboxylate] | 9.1%
COc1ccc(C2C(C(=O)OCc3ccc(Cn4cccn4)cc3)=C(C)Nc3nnnn32)c2ccccc12 (stereo not drawn) [PT-284, 4-((1H-pyrazol-1-yl)methyl)benzyl 7-(4-methoxynaphthalen-1-yl)-5-methyl-4,7-dihydrotetrazolo[1,5-a]pyrimidine-6-carboxylate] | 49.5%
CCOC(=O)C1=C(C)NC(C)=C(C(=O)OCC)C1c1ccc(N(C)C)cc1[N+](=O)[O-] [PT-437, diethyl 4-(4-(dimethylamino)-2-nitrophenyl)-2,6-dimethyl-1,4-dihydropyridine-3,5-dicarboxylate] | 43.1%
COc1ccc(C2C(C(=O)OCc3ccccc3)=C(C)Nc3c(C(=O)O)cnn32)c2ccccc12 (stereo not drawn) [PT-312, 6-(benzyloxycarbonyl)-7-(4-methoxynaphthalen-1-yl)-5-methyl-4,7-dihydropyrazolo[1,5-a]pyrimidine-3-carboxylic acid] | 5.2%
CC1=C(C(=O)O[C@@H](C)c2ccccc2)C(c2ccc(N(C)C)c3ccccc23)n2nnnc2N1 (stereo partly drawn) [PT-054, (S)-1-phenylethyl 7-(4-(dimethylamino)naphthalen-1-yl)-5-methyl-4,7-dihydrotetrazolo[1,5-a]pyrimidine-6-carboxylate] | 72.4%
CCOC(=O)C1=C(C)Nc2nnnn2C1c1ccccc1Oc1ccc(C(=O)O)cc1 (stereo not drawn) [PT-291, 4-(2-(6-(ethoxycarbonyl)-5-methyl-4,7-dihydrotetrazolo[1,5-a]pyrimidin-7-yl)phenoxy)benzoic acid] | 15.2%
CC1=C(C(=O)OCc2ccccc2)C(c2ccccc2F)n2nnnc2N1 (stereo not drawn) [PT-391, benzyl 7-(2-fluorophenyl)-5-methyl-4,7-dihydrotetrazolo[1,5-a]pyrimidine-6-carboxylate] | 32.4%
CC1=C(C(=O)OCc2ccccc2)[C@@H](c2ccccc2-c2cccc(C#N)c2)n2nnnc2N1 [PT-239, (R)-benzyl 7-(3′-cyanobiphenyl-2-yl)-5-methyl-4,7-dihydrotetrazolo[1,5-a]pyrimidine-6-carboxylate] | 94.8%
CC1=C(C(=O)N2CCC(c3ccccc3)CC2)C(c2ccc3ccccc3c2)C2=C(CCCC2=O)N1 (stereo not drawn) [PT-169, 2-methyl-4-(naphthalen-2-yl)-3-(4-phenylpiperidine-1-carbonyl)-4,6,7,8-tetrahydroquinolin-5(1H)-one] | 11.8%
CC1=C(C(=O)OC(c2ccc(F)cc2)c2ccc(F)cc2)C(c2cccc3ccccc23)n2nnnc2N1 (stereo not drawn) [PT-007, bis(4-fluorophenyl)methyl 5-methyl-7-(naphthalen-1-yl)-4,7-dihydrotetrazolo[1,5-a]pyrimidine-6-carboxylate] | 44%
CCOC(=O)C1=C(C)Nc2[nH]ncc2C1c1ccccc1-c1cccc(C(C)=O)c1 (stereo not drawn) [PT-451, ethyl 4-(3′-acetylbiphenyl-2-yl)-6-methyl-4,7-dihydro-1H-pyrazolo[3,4-b]pyridine-5-carboxylate] | 18.4%
CCOC(=O)C1=C(C)Nc2nnnn2C1c1ccccc1-n1cncn1 (stereo not drawn) [PT-475, ethyl 7-(2-(1H-1,2,4-triazol-1-yl)phenyl)-5-methyl-4,7-dihydrotetrazolo[1,5-a]pyrimidine-6-carboxylate] | 5.5%
COC(=O)C1=C(C)Nc2nnnn2C1c1c(-c2ccc(C(=O)O)cc2)sc2ccccc12 (stereo not drawn) [PT-296, 4-(3-(6-(methoxycarbonyl)-5-methyl-4,7-dihydrotetrazolo[1,5-a]pyrimidin-7-yl)benzo[b]thiophen-2-yl)benzoic acid] | 13.3%
CC1=C(C(=O)N[C@H](C)c2ccccc2)C(c2cccc3ccccc23)n2nnnc2N1 (stereo partly drawn) [PT-070, 5-methyl-7-(naphthalen-1-yl)-N-((R)-1-phenylethyl)-4,7-dihydrotetrazolo[1,5-a]pyrimidine-6-carboxamide] | 9.9%

Same assay, conditions: read-out: Late INa % blk

SMILES | inhibition at 10 µM
c1ccc2c(c1)CCC1=C2C(c2cccc3ccccc23)n2nnnc2N1 (stereo not drawn) [PT-198, 12-(naphthalen-1-yl)-5,6,7,12-tetrahydrobenzo[f]tetrazolo[5,1-b]quinazoline] | 50.9%
